# Measurements as given in ChEMBL document CHEMBL3507680, “University of Dundee, Gates Library screen for HepG2 cell viability”.
# Assay: Human HepG2 cell viability assay in 384 well format
# Assay type: toxicity, cell-based
# Parameters: dose 125 nL, time 70.5 hour; cytotoxicity at 70.5 h: concentration not given beside the values
# Conditions: HepG2 cells, read-out: Inhibition
row,SMILES,cytotoxicity at 70.5 h [%]
1,O=C(NCC1CCCO1)c1c(-n2cnnn2)sc2c1CCC2 (stereo not given),-18.6
2,CC(C)CCn1[nH]c(CNc2ccccc2)nc1=O,-10.8
3,CC1(C)Cc2ccccc2-c2nc(NCCO)[nH]c(=O)c21,-8.18
4,CN1CCc2c(C#N)c(NCc3ccco3)n3cnnc3c2C1,-7.42
5,O=C(Cn1ccc2ccc(Br)cc21)NCc1ccc(C(=O)O)cc1,-6.34
6,O=C(c1cc(-n2cnnn2)ccc1Cl)N1CCC2(CC1)OCCO2,-7.22
7,Cc1cc(O)c(OCC(=O)/N=c2\[nH]cc(C)s2)cn1,-21
8,COCc1n[nH]/c(=N/C(=O)COc2cnc(C)cc2O)s1,-9.66
9,COc1ccc(-c2n[nH]cc2C2SCC(=O)Nc3[nH]ncc32)cc1 (stereo not given),-9.36
10,CC(=O)c1cccc(NC(=O)Cn2cc(I)cn2)c1,-9.34
11,O=C(CCn1ccc2cc(Br)ccc21)NCc1ccc(C(=O)O)cc1,-5.77
12,CC(C)CCn1c(=O)nc2n1C(=O)N(c1ccc(F)cc1)C2,22.3
13,CC(C)Oc1ccccc1C1CC(=O)Nc2c1cnn2C (stereo not given),-11.9
14,CCNC(=O)c1ccc2c(c1)nc1n2CCN(Cc2ccco2)C1,-16
15,Cc1ccccc1N1CC2(CCN(S(=O)(=O)C3CC3)C2)CC1=O (stereo not given),-14.8
16,CN1[C@@H](C(=O)NCC2CC2)C[C@@H]2CN(Cc3ccco3)C[C@@H]21,-12.2
17,Cc1ccccc1N1CC2(CCN(S(=O)(=O)c3cccs3)C2)CC1=O (stereo not given),14
18,CCN1C(=O)CCCC12CCCN(C(=O)c1cnccn1)C2 (stereo not given),-5.91
19,Cc1cccc(CN2C[C@@H]3CN(C(=O)[C@H]4CCCO4)C[C@@H]3C2=O)c1,-5.16
20,Cc1noc(C)c1CN1CCCC2(CCN(C(=O)CC3CC3)C2)C1 (stereo not given),41.6
21,COCCN1C(=O)CCC12CCN(C(=O)CC1CC1)CC2,35.3
22,Cc1cnc(N2CCC3(CCN(CC4CC4)C3=O)CC2)nc1,-9.16

row,SMILES,cytotoxicity at 70.5 h [%]
1,C[C@H]1CN(Cc2cnn(C)c2)C[C@@]12CCN(Cc1cccnc1)C2=O,-7.75
2,COCCC(=O)N1CCCC2(CCC(=O)N2CCOC)CC1 (stereo not given),-7.23
3,COc1cccc(CN2CCCC3(CCN(C(=O)c4ccco4)C3)C2)c1 (stereo not given),-8.94
4,COc1cccc(CN2CCCC3(CCN(C(=O)[C@H]4CCCO4)C3)C2)c1 (stereo not given in full),-2.99
5,COCCCN1CC2(CCCCN2C(=O)c2ccsc2)CC1=O (stereo not given),8.24
6,CS(=O)(=O)N1CCCC12CCCN(S(=O)(=O)c1ccc(F)cc1)C2 (stereo not given),-8.04
7,c1cncc(COCC2CN(Cc3ccco3)Cc3ccnn3C2)c1 (stereo not given),0.213
8,O=C(NCc1cnc2n1CCN(c1ncc(F)cn1)CC2)C1CCC1,-9.1
9,Cc1occc1C(=O)N1CCc2ncnc(-c3cnn(C)c3)c2CC1,-8.07
10,Cc1cc(C(=O)NCc2ccc(-c3n[nH]cc3C(=O)N(C)C)cc2)on1,-2.38
11,CN(C)c1ncc(C(=O)N2C[C@H]3C[C@H](Oc4ccccc4)C[C@H]3C2)cn1,-0.787
12,c1ccc(CCN2CCCC(c3ccnc4nccn34)C2)cc1 (stereo not given),-1.37
13,Cc1cc(C(F)(F)F)nc(C2CCCN2S(C)(=O)=O)n1 (stereo not given),1.14
14,CCOCCN1CCC(c2cnccn2)CC1,21.8
15,CN1CCN(CC2(O)CCN(C(=O)CCc3ccccc3F)C2)CC1 (stereo not given),1.21
16,CO[C@H]1C[C@@H]2CN(C(=O)c3n[nH]c4c3CCCC4)C[C@@H]2C1,11
17,NC(=O)c1sc2ccccc2c1C1CCN(S(=O)(=O)N2CCOCC2)C1 (stereo not given),1.58
18,CCN(CC)S(=O)(=O)NCc1ccc(-c2ccc(C(N)=O)c(C)n2)cc1,-12.3
19,O=S1(=O)NC(c2ccnc(N3CCOCC3)n2)=Nc2ccccc21,-9.53
20,O=S1(=O)NC(c2ccnc(N3CCCC3)n2)=Nc2ccccc21,-3.65
21,COc1ccc2c(c1)c(-c1nc(N(C)C)ncc1CN)cn2C,12.9
22,Oc1cc(-c2nccs2)nc(C2CCN(Cc3cccs3)CC2)n1,-8.93

row,SMILES,cytotoxicity at 70.5 h [%]
1,CNc1ncccc1CN1CCC1c1cc(N)nc(C)n1 (stereo not given),12.5
2,O=C(c1cc(-n2cccn2)ccc1Cl)N1CCCC(N2CCCC2)C1 (stereo not given),-5.55
3,CCNC(=O)C1(Cc2cc(-c3ccccc3)no2)CCCN(C)C1 (stereo not given),-5.43
4,Cc1nnc(N2CCOC(C)(C(=O)NC3CCCC3)C2)c2ccccc12 (stereo not given),-3.81
5,Cc1cc(-c2nccs2)nc(C2CCN(Cc3cccs3)CC2)n1,-5.42
6,COCCCNc1ncc(-c2cccc(F)c2)c(-c2nccn2C)n1,-6.45
7,O=C(CC1CCN(c2cccnn2)CC1)Nc1nncs1,-5.72
8,OC1(CN2CCC(Cc3ncccn3)CC2)CCOCC1,13.1
9,Cc1nc(N)cc(C2CCN2CCOc2ccccc2)n1 (stereo not given),-6.55
10,Cc1nc(NC2CCCC2)cc(C2CCN2c2ncccn2)n1 (stereo not given),-5.59
11,CNC(=O)C1CN(c2ccnc(C)n2)CCN1Cc1ccccc1 (stereo not given),-3.79
12,Cc1nc(C(=O)N2CCCC2c2cncc(CN3CCCC3)n2)co1 (stereo not given),-1.27
13,Cc1c[nH]c(C2CCCN(Cc3cccc(C(=O)O)c3)C2)n1 (stereo not given),-4.03
14,Cc1nc(CN2CC(CCCc3ccccn3)(C(=O)N(C)C)C2)co1,-1.84
15,Cc1nc(CN2CCC2(CCCc2ccccn2)C(=O)N(C)C)co1 (stereo not given),-5.18
16,CN(C)C(=O)C1(CCCc2ccccn2)CCN1Cc1nccn1C (stereo not given),-6.27
17,O=C(c1cc[nH]n1)N1CCCC1c1cncc(CN2CCOCC2)n1 (stereo not given),-4.87
18,Cn1cc(-c2ccc(C3CCCCN3Cc3cccnc3)cn2)cn1 (stereo not given),-1.27
19,Cc1cn[nH]c1C1CCCN1Cc1ccc(F)c(F)c1 (stereo not given),-0.872
20,CCn1cc(S(=O)(=O)N2CCCCCC2c2cc(C)on2)cn1 (stereo not given),2.09
21,Cc1cc2ccncc2n1CC1(O)CCN(C(=O)c2ccccn2)CC1,-1.41
22,Cc1nc(C)c(C(=O)N2Cc3ccccc3OCC2Cn2ccnc2)s1 (stereo not given),2.25

row,SMILES,cytotoxicity at 70.5 h [%]
1,CN1C[C@@H](C(=O)N2CCCOCC2)[C@@]2(CCc3ccccc3C(=O)N2)C1,-1.32
2,Cc1nc(C)c(C(=O)N2Cc3ccccc3OCC2Cn2ccnc2)o1 (stereo not given),-1.03
3,CC(C(=O)N1CCCCC1)n1nc(-c2cccs2)cc(N)c1=O (stereo not given),14.9
4,O=C(Cn1cnc2cc3c(cc21)OCCCO3)NC1CCCC1,25.4
5,O=C(Cn1cnc2cc3c(cc21)OCCCO3)NC1CCCCC1,-1.58
6,Cn1cccc1C(=O)N1CCc2c(CNS(C)(=O)=O)cncc2C1,-18.4
7,CCOc1ccccc1C1CCCN1 (stereo not given),1.15
8,CCCN1C(=O)CC2(CCCNC2)C1=O (stereo not given),-14.9
9,Cc1cccc(CN2CCCCC2c2n[nH]cc2-c2cc(C)no2)c1 (stereo not given),-6.6
10,CN1C[C@@H](C(=O)N(C)C)[C@@]2(CCc3ccccc3C(=O)N2)C1,0.772
11,NCC1[C@H]2CN(CCc3ccccc3)C[C@@H]12 (stereo not given in full),43.3
12,Cc1nc(C)c(C(=O)N2Cc3ccccc3OCC2CN(C)C)o1 (stereo not given),1.45
13,COc1cc(N2CC[C@H]3O[C@@H](C(=O)NC4CCCC4)CC[C@H]32)ncn1,-9.02
14,O=C(NCC1CC1)C1CCC2(CCN(C(=O)c3ccccn3)CC2)O1 (stereo not given),20.3
15,O=C1CCC2(CCCN(CCc3ccccc3)C2)N1Cc1cccnc1 (stereo not given),-25
16,CC(C)NC(=O)CC1COC2(CCN(Cc3ccccc3)CC2)C1 (stereo not given),-14.2
17,COc1ccc(CN2CCC3(CC2)CCN(CC2CC2)C3=O)cc1,-14.4
18,O=C1C[C@H]2[C@@H](CCN2C(=O)Cc2cccs2)N1Cc1cccnc1,-17
19,Cc1cccc(CN2CCc3nnc(CO)n3CC2)n1,-3.1
20,CCN1CCC2(C=C(C(=O)NC3CC3)c3ccccc32)CC1,-3.64
21,CNC(=O)CN1CCCC12CCN(C(=O)c1ccsc1)CC2,-6.13
22,O=C1N(CC2CC2)CCC12CCN(c1ncccn1)CC2,-3.31

row,SMILES,cytotoxicity at 70.5 h [%]
1,O=C1CCC2(CCN(Cc3ccc(F)cc3)CC2)N1Cc1ccccc1,-5.78
2,NC(=O)N1CCC2(CC1)CN(Cc1cccnc1)C(=O)CO2,-7.6
3,CCn1nnc2c1C(COC)CN(Cc1ccsc1)C2 (stereo not given),-0.304
4,CN(C)C[C@H]1OC[C@@H]2CCN(C(=O)c3ccco3)C[C@@H]21,-1.52
5,COCCO[C@@H]1CCN(Cc2csc(C)n2)[C@H]1Cc1ccccc1,-8.53
6,Cc1ccc2c(n1)N(CCn1cccn1)CCN(C(=O)CC1CC1)C2,-15.3
7,COC[C@@H]1CC[C@H]2[C@H](CCN2C(=O)c2ccncc2F)O1,-7.3
8,Cc1ccc2c(n1)N(CCn1cccn1)CCN(C(=O)NC1CC1)C2,-10.7
9,Cc1nc(COC[C@]23COC[C@H]2CN(Cc2ccoc2)C3)cs1,-9.47
10,Cc1ccoc1C(=O)N1CCOCC2(CCN(c3ncccn3)C2)C1 (stereo not given),-11.7
11,CN(C)C[C@H]1OC[C@@H]2CCN(C(=O)c3cccn3C)C[C@@H]21,-7.55
12,COc1ccc(CN2CCO[C@H]3[C@H](OCCN4CCCC4)CC[C@@H]32)cc1,-9.88
13,COCC1c2c(cnn2CC2CC2)CCN1Cc1ccsc1 (stereo not given),-20.6
14,CNC(=O)[C@@H]1C[C@H]2CN(Cc3ccco3)C[C@H]2N1C,-15.3
15,CC(C)NC(=O)N1CCN(Cc2ccccn2)CC2(CC(=O)N(C)C2)C1 (stereo not given),22.3
16,CN(C)CCN1CCCC12CCN(C(=O)c1cccnc1)CC2,-3.11
17,CN1[C@H](CN2CCCC2)C[C@@H]2CN(C(=O)c3cccn3C)CC[C@@H]21,1.34
18,COCCN1CCc2cc(C(=O)N(C)C)c(NCC3CC3)nc2CC1,-4.26
19,O=C1CC2(CCN(CC3CC3)C2)CN1c1cccnc1 (stereo not given),-9.06
20,Cc1cccc(CN2C(=O)C[C@H]3[C@@H]2CCN3Cc2ccccn2)n1,23.7
21,COc1ccccc1CN(CCCn1ccnc1)CC1CCOC1 (stereo not given),-4.43
22,Cc1ccc(N(CC(=O)c2ccc(Br)cc2)C2=NCCCCC2)cc1,16.7
